Entries after “also recorded” stand apart in the source; their conditions may differ.
Key:
Format in all cases: cell-based
CDK9 [1] = target: T1, CDK9 (Homo sapiens, UniProt P50750); assay: CDK9 degradation and c-Myc/MCL-1 downregulation in LNCaP cells (immunoblot); design: endogenous in cells; host or cells: MOLT4, 293T, K562, NCI-H1299, LNCaP
Experimental: Human T-ALL MOLT4 (Cat. No. CRL-1582), K562 (Cat. No. CCL-243), NCI-H1299 (Cat. No. CRL-5803), NCI-H2228 (Cat. No. CRL-5935), LNCaP (Cat. No. CRL-1740), 22RV1 (Cat. No. CRL-2505), PC3 (Cat. No. CRL-1435), DU145 (Cat. No. HTB-81), and epithelial kidney HEK 293T (293T, Cat. No. ACS-4500) cell lines were recently purchased from American Type Culture Collection (ATCC, Manassas, VA, USA). MOLT4, K562, NCI—H-1299, NCI-H2228, LNCap, and 22RV 1 cell lines were cultured in RPMI 1640 medium (Cat No. 22400-089, Thermo Fisher Scientific, Waltham, MA, USA) supplemented with 10% (v/v) heat-inactivated fetal bovine serum (FBS, Cat. No. S11150H, Atlanta Biologicals, Flowery Branch, GA, USA), 100 U/mL penicillin and 100 pig/mL streptomycin (Pen-Strep, Cat. No. 15140122, Thermo Fisher Scientific). PC3 cells were cultured in complete F—12K medium (Kaighn's modification of Ham's F-12 medium, Cat. No. 30-2004, ATCC) supplemented with 10% (v/v) heat-inactivated FBS, 100 U/mL penicillin, and 100 μg/mL streptomycin. DU145 cells were cultured in complete Eagle's Minimum Essential Medium (EMEM, Cat. No. 30-2003, ATCC) supplemented with 10% (v/v) heat-inactivated FBS, 100 U/mL penicillin, and 100 μg/mL streptomycin. […]
Immunoblot data were quantified using the ImageJ (v 1.53a) software from NIH. […]

CDK9 [2] = target: T1, CDK9; assay: CDK9 degradation in MOLT4 cells (immunoblot); design: endogenous in cells; host or cells: MOLT4, 293T, K562, NCI-H1299, LNCaP
Experimental: All the cell lines were maintained in a humidified incubator at 37° C. and 5% CO2.
Data analysis was performed using GraphPad Prism software (version 9) unless indicated otherwise. All graphs presented represent the mean±standard deviation of the mean (SD) unless otherwise stated.

[3] = target: T2, CDK9: 955: KEAP1 ternary complex (Homo sapiens, UniProt P50750+Q14145); assay: NanoBRET ternary complex formation assay in live 293T cells; conditions: HiBit-CDK9 and Halo-KEAP1 in 293T cells, 6 h
T2 construct: expressed in transfected cells; host or cells: 293T
From the text: CMV HiBit (Cat. No. CS1956B03) was purchased from Promega. Plasmid HaloTag-KEAP1 (a gift from Yimon Aye, plasmid #58240) was purchased from Addgene. HiBit-CDK9 were constructed through the Gibson assembly method. The primer pair (5′-[…]atggcaaagcagtacgactcggtggag-3′ and 5′-[…]gaagacgcgctcaaactccgtctggt-3′) and the template HA-CDK9 (a gift from Andrew Rice, plasmid #28102) was used to clone the CDK9 fragment. The primer pair (5′-accagacggagtttgagcgcgtcttc[…]-3′ and 5′-ctccaccgagtcgtactgcttcgccat[…]-3′) and pBit3.1—N(Cat. No. N2361, Promega) were used to clone the vector-containing fragment. The PCR fragments were assembled using NEBuilder® HiFi DNAAssembly Master Mix. DNA sequences in all these plasmids were authenticated by automatic sequencing. […] After treatment, NanoBRET Nano-Glo Substrate (Cat. No. N1662, Promega) was added into the medium, and the contents were mixed by shaking the plate for 30 s before measuring donor and acceptor signals on Biotek plate reader. Dual-filtered luminescence was collected with a 450/50 nm bandpass filter (donor, NanoBiT-CDK9 protein) and a 610-nm longpass filter (acceptor, HaloTag NanoBRET ligand) using an integration time of 0.5 s. mBRET ratios were calculated following the NanoBRET™ Nano-Glo® Detection System (Cat. No. N1662, Promega).

T1 sequence (P50750 whole entry): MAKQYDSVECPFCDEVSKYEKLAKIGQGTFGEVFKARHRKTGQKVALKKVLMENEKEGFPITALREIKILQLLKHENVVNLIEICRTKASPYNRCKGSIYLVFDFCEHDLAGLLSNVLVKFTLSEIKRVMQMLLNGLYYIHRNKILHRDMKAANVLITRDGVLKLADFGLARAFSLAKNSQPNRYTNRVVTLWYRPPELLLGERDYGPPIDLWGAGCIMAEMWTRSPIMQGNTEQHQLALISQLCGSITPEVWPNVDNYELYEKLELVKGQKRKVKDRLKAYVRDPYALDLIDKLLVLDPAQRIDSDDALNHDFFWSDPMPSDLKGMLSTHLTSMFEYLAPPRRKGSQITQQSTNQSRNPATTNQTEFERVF
T2 sequence (P50750 whole entry): as above
T2 sequence (Q14145 whole entry): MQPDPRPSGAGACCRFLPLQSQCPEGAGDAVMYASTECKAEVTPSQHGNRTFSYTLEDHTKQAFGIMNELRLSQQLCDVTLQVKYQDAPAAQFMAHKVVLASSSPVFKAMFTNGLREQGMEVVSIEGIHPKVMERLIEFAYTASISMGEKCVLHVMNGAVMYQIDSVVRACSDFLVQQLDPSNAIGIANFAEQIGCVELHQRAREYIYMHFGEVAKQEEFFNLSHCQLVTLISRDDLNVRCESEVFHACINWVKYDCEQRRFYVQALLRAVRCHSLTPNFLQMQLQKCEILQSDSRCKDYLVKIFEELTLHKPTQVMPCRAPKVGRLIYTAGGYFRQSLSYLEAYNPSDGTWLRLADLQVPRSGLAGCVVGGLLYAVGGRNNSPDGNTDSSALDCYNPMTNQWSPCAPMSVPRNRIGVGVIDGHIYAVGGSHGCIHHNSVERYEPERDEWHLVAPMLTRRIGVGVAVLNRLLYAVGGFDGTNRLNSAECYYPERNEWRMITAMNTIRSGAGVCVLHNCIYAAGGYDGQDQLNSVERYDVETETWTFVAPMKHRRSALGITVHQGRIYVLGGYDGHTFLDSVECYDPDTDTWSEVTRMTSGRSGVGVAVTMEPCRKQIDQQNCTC

## COc1cc(/C=C/C(=O)N2CCC=CC2=O)cc(OC)c1OCCN1CCN(C(=O)CN2CCC(C(=O)Nc3ncc(SCc4ncc(C(C)(C)C)o4)s3)CC2)CC1 [compound 955, (E)-N-(5-(((5-(tert-butyl)oxazol-2-yl)methyl)thio)thiazol-2-yl)-1-(2-(4-(2-(2,6-dimethoxy-4-(3-oxo-3-(6-oxo-3,6-dihydropyridin-1(2H)-yl)prop-1-en-1-yl)phenoxy)ethyl)piperazin-1-yl)-2-oxoethyl)piperidine-4-carboxamide]
CDK9 [1]
  CDK9 degradation and downregulation of c-Myc and MCL-1: dose-dependent manner; also recorded: potently degraded CDK9 and downregulated c-Myc and MCL-1
CDK9 [2]
  955-induced CDK9 degradation after pre-treatment with PL or SNS-032: fully blocked
  955-induced CDK9 degradation after pre-treatment with autophagy/lysosome inhibitor Baf-A1 or chloroquine: could not block CDK9 degradation; also recorded: does not block CDK9 degradation
  955-induced CDK9 degradation after pre-treatment with neddylation inhibitor MLN4924: could be blocked; also recorded: blocks 955-induced CDK9 degradation
  955-induced CDK9 degradation after pre-treatment with pan-caspase inhibitor QVD: could not block CDK9 degradation; also recorded: does not block CDK9 degradation
  955-induced CDK9 degradation after pre-treatment with proteasome inhibitor MG132 or bortezomib: could be blocked; also recorded: can be blocked
  955-induced CDK9 degradation with E1 inhibitors PYR-41 and TAK-243: E1-dependent
  955-induced CDK9 degradation with KEAP1 inhibitors CDDO-ME, CDDO-IM or DMF: completely blocked
CDK9 [2]; 955 at 0.1 μM
  duration of CDK9 degradation effect in the time course: at least 48 hours
CDK9 [2]; 955 at 0.1 μM, time course
  time at which CDK9 was completely degraded: 8 h
  time to almost complete degradation of CDK9: ≤ 8 h
CDK9 [2]; 6 h treatment
  CDK9 degradation with short-term treatment: potently degraded CDK9; also recorded: able to potently degrade CDK9
CDK9 [2]; 16 h treatment, from ImageJ-quantified Western blots
  DC50: 9 nM
CDK9 [2]; immunoblot
  CDK9 degradation: only 955, degraded CDK9; also recorded: can induce CDK9 degradation
CDK9 [2]; washout
  duration of CDK9 degradation after removal (washout) of 955: up to 18 h
[3]
  formation of the CDK9:KEAP1 ternary complex: formed a stable ternary complex with CDK9 and KEAP1 in a dose-dependent manner

— patent US20250057963A1, “DISCOVERY OF PIPERLONGUMINE AS A NOVEL E3 LIGASE LIGAND” (University of Florida Research Foundation, Incorporated, priority 2021, published 2025)
